Measurements reported in patent US9012443B2 (Amgen Inc., priority 2011, dated 2015).
Structures can show the parent of a compound that is named as a salt.

What follows are compounds tested against Nav 1.7 (Homo sapiens (Human), UniProt Q15858) (assay: Nav 1.7 in vitro PX assay (PatchXpress whole cell voltage clamp)). Conditions: 293 cells, human Nav1.7, partially inactivated state; read-out: Nav1.7 PX IC50 IP.
Type: cell-based
Description: Nav 1.7 In Vitro PX Assay
293 cells stably transfected with human Nav1.7 were recorded in whole cell voltage clamp mode with the PatchXpress automated electrophysiology system (Molecular Devices, LLC, Sunnyvale, Calif.). Compound effects were measured on a partially inactivated state of the sodium channel. Cells were clamped to a holding potential yielding 20 to 50% inactivation. To elicit sodium current, channels were activated by pulsing to −10 mV for 20 msec. […] A single concentration of test compound was applied to cells for a duration of 3 minutes. Peak sodium current was measured at the end of the compound addition period to determine percent inhibition. Three to five cells were tested per concentration, and IC50 curves were fitted to percent inhibition as a function of concentration.

Chain of Nav 1.7 (Q15858 whole entry): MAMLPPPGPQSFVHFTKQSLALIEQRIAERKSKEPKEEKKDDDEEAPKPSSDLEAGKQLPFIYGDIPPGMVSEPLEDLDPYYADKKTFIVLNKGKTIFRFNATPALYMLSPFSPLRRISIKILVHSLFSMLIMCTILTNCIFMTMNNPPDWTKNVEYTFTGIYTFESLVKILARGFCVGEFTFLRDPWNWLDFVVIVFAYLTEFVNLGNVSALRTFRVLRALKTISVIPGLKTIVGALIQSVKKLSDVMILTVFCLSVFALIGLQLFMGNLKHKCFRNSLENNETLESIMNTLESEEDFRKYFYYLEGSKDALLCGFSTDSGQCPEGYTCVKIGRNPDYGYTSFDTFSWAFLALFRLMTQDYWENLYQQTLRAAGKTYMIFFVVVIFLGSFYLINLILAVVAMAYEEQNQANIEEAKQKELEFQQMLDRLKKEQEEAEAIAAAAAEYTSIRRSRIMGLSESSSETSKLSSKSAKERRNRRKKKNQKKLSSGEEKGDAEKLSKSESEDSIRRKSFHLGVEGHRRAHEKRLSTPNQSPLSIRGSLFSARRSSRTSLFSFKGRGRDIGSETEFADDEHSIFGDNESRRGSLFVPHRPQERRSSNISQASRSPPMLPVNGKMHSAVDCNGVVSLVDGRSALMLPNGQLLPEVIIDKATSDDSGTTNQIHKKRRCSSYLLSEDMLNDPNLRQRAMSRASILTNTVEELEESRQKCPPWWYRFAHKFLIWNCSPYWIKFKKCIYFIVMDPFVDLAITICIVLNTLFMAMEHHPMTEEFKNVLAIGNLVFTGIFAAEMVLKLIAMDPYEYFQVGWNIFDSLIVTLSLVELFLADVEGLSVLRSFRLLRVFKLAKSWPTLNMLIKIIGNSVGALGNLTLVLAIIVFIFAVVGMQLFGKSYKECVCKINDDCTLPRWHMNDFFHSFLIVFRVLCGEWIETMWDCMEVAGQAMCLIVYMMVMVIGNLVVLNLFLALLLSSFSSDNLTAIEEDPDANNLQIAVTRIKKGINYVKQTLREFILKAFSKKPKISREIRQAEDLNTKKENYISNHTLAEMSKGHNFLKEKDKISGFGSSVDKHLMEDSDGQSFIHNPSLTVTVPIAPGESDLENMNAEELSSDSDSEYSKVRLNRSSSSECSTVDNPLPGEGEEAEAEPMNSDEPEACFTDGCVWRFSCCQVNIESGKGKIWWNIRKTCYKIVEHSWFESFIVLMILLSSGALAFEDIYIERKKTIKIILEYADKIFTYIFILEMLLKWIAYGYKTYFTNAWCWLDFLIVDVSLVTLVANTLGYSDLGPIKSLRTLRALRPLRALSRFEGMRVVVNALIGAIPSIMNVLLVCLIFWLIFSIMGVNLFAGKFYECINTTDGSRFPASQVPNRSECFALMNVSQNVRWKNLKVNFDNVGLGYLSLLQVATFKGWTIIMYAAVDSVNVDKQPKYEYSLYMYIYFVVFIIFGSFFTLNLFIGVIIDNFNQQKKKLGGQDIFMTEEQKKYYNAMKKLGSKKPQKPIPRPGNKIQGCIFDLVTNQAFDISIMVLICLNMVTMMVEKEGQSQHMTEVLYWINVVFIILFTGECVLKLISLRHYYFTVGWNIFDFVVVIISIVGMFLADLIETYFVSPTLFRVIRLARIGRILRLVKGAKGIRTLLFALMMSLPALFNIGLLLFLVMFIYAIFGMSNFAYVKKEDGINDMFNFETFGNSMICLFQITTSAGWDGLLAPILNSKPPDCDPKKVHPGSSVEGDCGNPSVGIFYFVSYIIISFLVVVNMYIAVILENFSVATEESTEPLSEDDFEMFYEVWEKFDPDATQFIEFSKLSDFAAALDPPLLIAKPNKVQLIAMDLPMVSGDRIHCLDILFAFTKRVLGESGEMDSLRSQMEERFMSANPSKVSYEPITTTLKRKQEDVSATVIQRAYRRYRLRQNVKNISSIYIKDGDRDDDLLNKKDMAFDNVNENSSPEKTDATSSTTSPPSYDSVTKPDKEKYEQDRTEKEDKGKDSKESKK

Q: How did the IC50 turn out when O=S(=O)(Nc1nccs1)c1ccc2c(-c3ccccc3Cl)nccc2c1 [Example 179, 1-(2-CHLOROPHENYL)-N-(THIAZOL-2-YL)ISOQUINOLINE-6-SULFONAMIDE] was run?
A: Its IC50 is 1300 nM.

Q: With Cn1cc(-c2cc(F)ccc2-c2nccc3cc(S(=O)(=O)Nc4nccs4)ccc23)cn1 [Example 129, 1-(4-FLUORO-2-(1-METHYL-1H-PYRAZOL-4-YL)PHENYL)-N-(THIAZOL-2-YL)ISOQUINOLINE-6-SULFONAMIDE TRIFLUOROACETATE] as the compound, how does the IC50 read?
A: Its IC50 is 8000 nM.

Q: How did the IC50 turn out when COc1cc(-c2nccs2)ccc1-c1nccc2cc(S(=O)(=O)Nc3ccncn3)ccc12 [Example 456, 1-(2-METHOXY-4-(THIAZOL-2-YL)PHENYL)-N-(PYRIMIDIN-4-YL)ISOQUINOLINE-6-SULFONAMIDE] was run?
A: The IC50 was 4700 nM.

Q: COc1cc(C(F)(F)F)ccc1-c1nccc2cc(S(=O)(=O)Nc3nc(C)cs3)ccc12 [Example 424, 1-(2-METHOXY-4-(TRIFLUOROMETHYL)PHENYL)-N-(4-METHYLTHIAZOL-2-YL)ISOQUINOLINE-6-SULFONAMIDE] was tested. Which IC50 did it give?
A: Its IC50 is 1660 nM.

Q: With Cc1cnc(OC2CCNCC2)c(-c2nccc3cc(S(=O)(=O)Nc4nccs4)ccc23)c1 [Example 378, 1-(5-METHYL-2-(PIPERIDIN-4-YLOXY)PYRIDIN-3-YL)-N-(THIAZOL-2-YL)ISOQUINOLINE-6-SULFONAMIDE] as the compound, how does the IC50 read?
A: The IC50 was 2420 nM.

Q: COc1ccc(Cl)cc1-c1n[nH]c(=O)c2cc(S(=O)(=O)Nc3ccncn3)ccc12 [Example 504, 1-(5-CHLORO-2-METHOXYPHENYL)-4-OXO-N-(PYRIMIDIN-4-YL)-3,4-DIHYDROPHTHALAZINE-6-SULFONAMIDE] was tested. Which IC50 did it give?
A: The IC50 was 1590 nM.

Q: How did the IC50 turn out when COc1cc(C(F)(F)F)ccc1-c1nc(=O)[nH]c2cc(S(=O)(=O)Nc3nccs3)ccc12 [Example 543, 4-(2-METHOXY-4-(TRIFLUOROMETHYL)PHENYL)-2-OXO-N-(THIAZOL-2-YL)-1,2-DIHYDROQUINAZOLINE-7-SULFONAMIDE] was run?
A: Its IC50 is 4560 nM.

Q: COc1cc(C(F)(F)F)ccc1-c1nc(C)nc2cc(S(=O)(=O)Nc3ccncn3)ccc12 [Example 518, 4-(2-METHOXY-4-(TRIFLUOROMETHYL)PHENYL)-2-METHYL-N-(PYRIMIDIN-4-YL)QUINAZOLINE-7-SULFONAMIDE] was tested. Which IC50 did it give?
A: Its IC50 is 2600 nM.

Q: For O=S(=O)(Nc1nccs1)c1ccc2c(-c3ccc(F)cc3C3=CCOC3)nccc2c1 [Example 127, 1-(2-(2,5-DIHYDROFURAN-3-YL)-4-FLUOROPHENYL)-N-(THIAZOL-2-YL)ISOQUINOLINE-6-SULFONAMIDE TRIFLUOROACETATE], which IC50 is on record?
A: Its IC50 is 2220 nM.

Q: For COc1nc(C)ccc1-c1nccc2cc(S(=O)(=O)Nc3nccs3)ccc12 [Example 412, 1-(2-METHOXY-6-METHYLPYRIDIN-3-YL)-N-(THIAZOL-2-YL)ISOQUINOLINE-6-SULFONAMIDE], which IC50 is on record?
A: Its IC50 is 1030 nM.

Q: With COc1cc(C2(F)COC2)ccc1-c1nc(C)nc2cc(S(=O)(=O)Nc3nccs3)ccc12 [Example 516, 4-(4-(3-FLUOROOXETAN-3-YL)-2-METHOXYPHENYL)-2-METHYL-N-(THIAZOL-2-YL)QUINAZOLINE-7-SULFONAMIDE] as the compound, how does the IC50 read?
A: The IC50 was 1050 nM.

Q: Which IC50 does the source give for COc1cc(C(F)(F)F)ccc1-c1nccc2cc(S(=O)(=O)Nc3ncc(F)cn3)ccc12 [Example 426] here?
A: The IC50 was 2490 nM.

Q: How did the IC50 turn out when COc1cc(Cl)ccc1-c1ncnc2cc(S(=O)(=O)Nc3ccncn3)ccc12 [Example 526, 4-(4-CHLORO-2-METHOXYPHENYL)-N-(PYRIMIDIN-4-YL)QUINAZOLINE-7-SULFONAMIDE] was run?
A: The IC50 was 2300 nM.

Q: How did the IC50 turn out when O=S(=O)(Nc1nccs1)c1ccc2c(-c3cc(F)ccc3OC(F)F)nccc2c1 [Example 413, 1-(2-(DIFLUOROMETHOXY)-5-FLUOROPHENYL)-N-(THIAZOL-2-YL)ISOQUINOLINE-6-SULFONAMIDE] was run?
A: The IC50 was 830 nM.

Q: With COc1cc(C#N)ccc1-c1ccnc2cc(S(=O)(=O)Nc3ccncn3)ccc12 [Example 280, 4-(4-CYANO-2-METHOXYPHENYL)-N-(PYRIMIDIN-4-YL)QUINOLINE-7-SULFONAMIDE] as the compound, how does the IC50 read?
A: The IC50 was 4450 nM.

Q: For COc1cc(-c2ccnc(F)c2)ccc1-c1nccc2cc(S(=O)(=O)Nc3ccncn3)ccc12 [Example 474, 1-(4-(2-FLUOROPYRIDIN-4-YL)-2-METHOXYPHENYL)-N-(PYRIMIDIN-4-YL)ISOQUINOLINE-6-SULFONAMIDE], which IC50 is on record?
A: Its IC50 is 2610 nM.

Q: With COc1cc(OCC(F)(F)F)ccc1-c1nccc2cc(S(=O)(=O)Nc3ccncn3)ccc12 [Example 362, 1-(2-METHOXY-4-(2,2,2-TRIFLUOROETHOXY)PHENYL)-N-(PYRIMIDIN-4-YL)ISOQUINOLINE-6-SULFONAMIDE] as the compound, how does the IC50 read?
A: The IC50 was 1070 nM.

Q: With N#Cc1ccccc1-c1ncc(F)c2cc(S(=O)(=O)Nc3nccs3)ccc12 [Example 397, 1-(2-CYANOPHENYL)-4-FLUORO-N-(THIAZOL-2-YL)ISOQUINOLINE-6-SULFONAMIDE] as the compound, how does the IC50 read?
A: The IC50 was 3520 nM.

Q: Which IC50 does the source give for COc1cc(C(F)(F)F)ccc1-c1nccc2cc(S(=O)(=O)Nc3nc(C(F)(F)F)cs3)ccc12 [Example 428, 1-(2-METHOXY-4-(TRIFLUOROMETHYL)PHENYL)-N-(4-(TRIFLUOROMETHYL)THIAZOL-2-YL)ISOQUINOLINE-6-SULFONAMIDE] here?
A: The IC50 was 4570 nM.

Q: Which IC50 does the source give for COc1ccccc1-c1cncc2cc(S(=O)(=O)Nc3ccncn3)ccc12 [Example 287, 4-(2-METHOXYPHENYL)-N-(PYRIMIDIN-4-YL)ISOQUINOLINE-7-SULFONAMIDE HYDROCHLORIDE] here?
A: The IC50 was 4150 nM.

Q: CC(C#N)Oc1cc(F)ccc1-c1nccc2cc(S(=O)(=O)Nc3nccs3)ccc12 (centres unmarked) [Example 415, 1-(2-(1-CYANOETHOXY)-4-FLUOROPHENYL)-N-(THIAZOL-2-YL)ISOQUINOLINE-6-SULFONAMIDE] was tested. Which IC50 did it give?
A: The IC50 was 1070 nM.

Q: Which IC50 does the source give for COc1ncccc1-c1ncc(F)c2cc(S(=O)(=O)Nc3nccs3)ccc12 [Example 396, 4-FLUORO-1-(2-METHOXYPYRIDIN-3-YL)-N-(THIAZOL-2-YL)ISOQUINOLINE-6-SULFONAMIDE] here?
A: Its IC50 is 1040 nM.

Q: With COc1cc(-c2cncc(F)c2)ccc1-c1nccc2cc(S(=O)(=O)Nc3ccncn3)ccc12 [Example 475, 1-(4-(5-FLUOROPYRIDIN-3-YL)-2-METHOXYPHENYL)-N-(PYRIMIDIN-4-YL)ISOQUINOLINE-6-SULFONAMIDE] as the compound, how does the IC50 read?
A: The IC50 was 1880 nM.

Q: NC(=O)COc1cc(F)ccc1-c1nccc2cc(S(=O)(=O)Nc3nccs3)ccc12 [Example 417, 2-(5-FLUORO-2-(6-(N-(THIAZOL-2-YL)SULFAMOYL)ISOQUINOLIN-1-YL)PHENOXY)ACETAMIDE] was tested. Which IC50 did it give?
A: The IC50 was 1230 nM.

Q: How did the IC50 turn out when COc1cc(-c2cncc(C)c2)ccc1-c1nccc2cc(S(=O)(=O)Nc3ccncn3)ccc12 [Example 478, 1-(2-METHOXY-4-(5-METHYLPYRIDIN-3-YL)PHENYL)-N-(PYRIMIDIN-4-YL)ISOQUINOLINE-6-SULFONAMIDE] was run?
A: The IC50 was 3640 nM.

Q: Which IC50 does the source give for Cc1cc(C#N)ccc1-c1ncnc2cc(S(=O)(=O)Nc3nccs3)ccc12 [Example 542] here?
A: The IC50 was 5020 nM.

Q: With COc1cc(-c2c(C)ccnc2F)ccc1-c1nccc2cc(S(=O)(=O)Nc3ccncn3)ccc12 [Example 480, 1-(4-(2-FLUORO-4-METHYLPYRIDIN-3-YL)-2-METHOXYPHENYL)-N-(PYRIMIDIN-4-YL)ISOQUINOLINE-6-SULFONAMIDE] as the compound, how does the IC50 read?
A: Its IC50 is 2770 nM.

Q: With COc1ncc(C)cc1-c1nccc2cc(S(=O)(=O)Nc3nccs3)ccc12 [Example 411, 1-(2-METHOXY-5-METHYLPYRIDIN-3-YL)-N-(THIAZOL-2-YL)ISOQUINOLINE-6-SULFONAMIDE] as the compound, how does the IC50 read?
A: Its IC50 is 685 nM.

Q: For COc1cc(C#N)ccc1-c1ncc(F)c2cc(S(=O)(=O)Nc3ncns3)ccc12 [Example 395, 1-(4-CYANO-2-METHOXYPHENYL)-4-FLUORO-N-(1,2,4-THIADIAZOL-5-YL)ISOQUINOLINE-6-SULFONAMIDE], which IC50 is on record?
A: The IC50 was 761 nM.

Q: For COc1ccccc1-c1n[nH]c(=O)c2cc(S(=O)(=O)Nc3ncns3)ccc12 [Example 508, 1-(2-METHOXYPHENYL)-4-OXO-N-(1,2,4-THIADIAZOL-5-YL)-3,4-DIHYDROPHTHALAZINE-6-SULFONAMIDE], which IC50 is on record?
A: Its IC50 is 1300 nM.

Q: Which IC50 does the source give for COc1cc(-c2cc(F)cc(F)c2)ccc1-c1nccc2cc(S(=O)(=O)Nc3nnco3)ccc12 [Example 372, 1-(3′,5′-DIFLUORO-3-METHOXY-[1,1′-BIPHENYL]-4-YL)-N-(1,3,4-OXADIAZOL-2-YL)ISOQUINOLINE-6-SULFONAMIDE] here?
A: Its IC50 is 16600 nM.

Q: COc1cc(Oc2ccccc2F)ccc1-c1nccc2cc(S(=O)(=O)Nc3ccncn3)ccc12 [Example 465, 1-(4-(2-FLUOROPHENOXY)-2-METHOXYPHENYL)-N-(PYRIMIDIN-4-YL)ISOQUINOLINE-6-SULFONAMIDE] was tested. Which IC50 did it give?
A: Its IC50 is 567 nM.

Q: COc1cc(C#N)ccc1-c1cncc2cc(S(=O)(=O)Nc3ccncn3)ccc12 [Example 286, 4-(4-CYANO-2-METHOXYPHENYL)-N-(PYRIMIDIN-4-YL)ISOQUINOLINE-7-SULFONAMIDE HYDROCHLORIDE] was tested. Which IC50 did it give?
A: The IC50 was 4220 nM.

Q: How did the IC50 turn out when COc1cc(-c2cnc(F)c(C)c2)ccc1-c1nccc2cc(S(=O)(=O)Nc3ccncn3)ccc12 [Example 481, 1-(4-(6-FLUORO-5-METHYLPYRIDIN-3-YL)-2-METHOXYPHENYL)-N-(PYRIMIDIN-4-YL)ISOQUINOLINE-6-SULFONAMIDE] was run?
A: Its IC50 is 788 nM.

Q: For COc1cc(C(F)(F)F)ccc1-c1nccc2cc(S(=O)(=O)N=C3NC(=O)CS3)ccc12 [Example 248, (E/Z)-1-(2-METHOXY-4-(TRIFLUOROMETHYL)PHENYL)-N-(4-OXOTHIAZOLIDIN-2-YLIDENE)ISOQUINOLINE-6-SULFONAMIDE], which IC50 is on record?
A: Its IC50 is 910 nM.

Q: For COc1cc(-c2cccnc2F)ccc1-c1nccc2cc(S(=O)(=O)Nc3ccncn3)ccc12 [Example 473, 1-(4-(2-FLUOROPYRIDIN-3-YL)-2-METHOXYPHENYL)-N-(PYRIMIDIN-4-YL)ISOQUINOLINE-6-SULFONAMIDE], which IC50 is on record?
A: Its IC50 is 1360 nM.

Q: How did the IC50 turn out when COc1cc(C(F)(F)F)ccc1-c1nccc2cc(S(=O)(=O)Nc3cnsn3)ccc12 [Example 388, 1-(2-METHOXY-4-(TRIFLUOROMETHYL)PHENYL)-N-(1,2,5-THIADIAZOL-3-YL)ISOQUINOLINE-6-SULFONAMIDE] was run?
A: The IC50 was 1750 nM.

Q: For COc1ncc(C(F)(F)F)cc1-c1nccc2cc(S(=O)(=O)Nc3nccs3)ccc12 [Example 409, 1-(2-METHOXY-5-(TRIFLUOROMETHYL)PYRIDIN-3-YL)-N-(THIAZOL-2-YL)ISOQUINOLINE-6-SULFONAMIDE], which IC50 is on record?
A: Its IC50 is 690 nM.
